Test results: ChEMBL document CHEMBL1137642, “Growth and drug resistance phenotypes resulting from cytomegalovirus DNA polymerase region III mutations observed in clinical specimens” (Antimicrob Agents Chemother, 2007)

Experiments:
[1] = test system: Human betaherpesvirus 5; assay: Antiviral activity against Cytomegalovirus CMV T2211 infected in HFF cells by SEAP reporter gene assay; assay type: functional, organism-based; settings: Human betaherpesvirus 5, T2211, HFF
[2] = test system: Human betaherpesvirus 5; assay: Drug resistance, ratio of EC50 for Cytomegalovirus CMV T2798 with pol T813S UL97 C592G double mutant to EC50 for Cytomegalovirus CMV T2211 by SEAP reporter gene assay; assay type: functional
[3] = test system: Human betaherpesvirus 5; assay: Antiviral activity against Cytomegalovirus CMV T2258 with UL97 C592G mutant infected in HFF cells by SEAP reporter gene assay; assay type: functional, organism-based; settings: Human betaherpesvirus 5, T2258, HFF
[4] = test system: Human betaherpesvirus 5; assay: Antiviral activity against Cytomegalovirus CMV T2542 with pol T813S mutant infected in HFF cells by SEAP reporter gene assay; assay type: functional, organism-based; settings: Human betaherpesvirus 5, T2542, HFF
[5] = test system: Human betaherpesvirus 5; assay: Drug resistance, ratio of EC50 for Cytomegalovirus CMV pol T821I mutant to EC50 for Cytomegalovirus CMV T2211 by SEAP reporter gene assay; assay type: functional
[6] = test system: Human betaherpesvirus 5; assay: Drug resistance, ratio of EC50 for Cytomegalovirus CMV T2417 pol A809V mutant to EC50 for Cytomegalovirus CMV T2211 by plaque reduction assay; assay type: functional
[7] = test system: Human betaherpesvirus 5; assay: Antiviral activity against Cytomegalovirus CMV T2784 with pol A809V UL97 C592G double mutant infected in HFF cells by SEAP reporter gene assay; assay type: functional, organism-based; settings: Human betaherpesvirus 5, T2784, HFF
[8] = test system: Human betaherpesvirus 5; assay: Drug resistance, ratio of EC50 for Cytomegalovirus CMV pol A384P mutant to EC50 for Cytomegalovirus CMV T2211 by SEAP reporter gene assay; assay type: functional
[9] = test system: Human betaherpesvirus 5; assay: Drug resistance, ratio of EC50 for Cytomegalovirus CMV T2784 with pol A809V UL97 C592G double mutant to EC50 for Cytomegalovirus CMV T2211 by SEAP reporter gene assay; assay type: functional
[10] = test system: Human betaherpesvirus 5; assay: Antiviral activity against Cytomegalovirus CMV 2817 with pol G841A UL97 C592G double mutant infected in HFF cells by SEAP reporter gene assay; assay type: functional, organism-based; settings: Human betaherpesvirus 5, T2817, HFF
[11] = test system: Human betaherpesvirus 5; assay: Antiviral activity against Cytomegalovirus CMV T2420 with pol G841A mutant infected in HFF cells by SEAP reporter gene assay; assay type: functional, organism-based; settings: Human betaherpesvirus 5, T2420, HFF
[12] = test system: Human betaherpesvirus 5; assay: Antiviral activity against Cytomegalovirus CMV T2417 with pol A809V mutant infected in HFF cells by SEAP reporter gene assay; assay type: functional, organism-based; settings: Human betaherpesvirus 5, T2417, HFF
[13] = test system: Human betaherpesvirus 5; assay: Drug resistance, ratio of EC50 for Cytomegalovirus CMV T2817 with pol G841A UL97 C592G double mutant to EC50 for Cytomegalovirus CMV T2211 by SEAP reporter gene assay; assay type: functional
[14] = test system: Human betaherpesvirus 5; assay: Antiviral activity against Cytomegalovirus CMV T2798 with pol T813S UL97 C592G double mutant infected in HFF cells by SEAP reporter gene assay; assay type: functional, organism-based; settings: Human betaherpesvirus 5, T2798, HFF
[15] = test system: Human betaherpesvirus 5; assay: Drug resistance, ratio of EC50 for Cytomegalovirus CMV […] pol T813S mutant to EC50 for Cytomegalovirus CMV T2211 by SEAP reporter gene assay; assay type: functional
[16] = test system: Human betaherpesvirus 5; assay: Drug resistance, ratio of EC50 for Cytomegalovirus CMV T2417 pol A809V mutant to EC50 for Cytomegalovirus CMV T2211 by SEAP reporter gene assay; assay type: functional
[17] = test system: Human betaherpesvirus 5; assay: Drug resistance, ratio of EC50 for Cytomegalovirus CMV T2420 pol G841A mutant to EC50 for Cytomegalovirus CMV T2211 by SEAP reporter gene assay; assay type: functional

Row | SMILES | EC50 [1] [µM] | fold change (FC) [2] | EC50 [3] [µM] | EC50 [4] [µM] | fold change (FC) [5] | fold change (FC) [6] | EC50 [7] [µM] | fold change (FC) [8] | fold change (FC) [9] | EC50 [10] [µM] | EC50 [11] [µM] | EC50 [12] [µM] | fold change (FC) [13] | EC50 [14] [µM] | fold change (FC) [15] | fold change (FC) [16] | fold change (FC) [17]
1 | Nc1nc2c(ncn2COC(CO)CO)c(=O)[nH]1 [GANCICLOVIR] | 1.1 | 2 | 3.9 | 2.7 | 5 | 2.6 | 6.1 | 5 | 2 | 8.4 | 3.5 | 2.6 | 2 | 6.6 |  |  | 
2 | Nc1ccn(C[C@@H](CO)OCP(=O)(O)O)c(=O)n1.O.O [CIDOFOVIR] | 0.22 |  | 0.27 | 0.6 |  | 1.6 | 0.45 |  |  | 0.67 | 0.58 | 0.42 |  | 0.37 |  |  | 
3 | O=C(O)P(=O)(O)O [FOSCARNET] | 41 |  | 44 | 199 |  | 6.3 | 137 |  |  | 213 | 176 | 137 |  | 204 | 3 | 3 | 3
